Test results taken from paper PMC11978679, “Pyrazolyl amide-chalcones conjugates: Synthesis and antikinetoplastid activity” (Naunyn-Schmiedeberg's Archives of Pharmacology, 2024).
Where two headings read alike, the source gives them in different places.

Legend:
[1] = test system: Trypanosoma cruzi (intracellular amastigotes); assay: In vitro anti-parasitic assay, T. cruzi (β-galactosidase/CPRG readout); conditions: TULAHUEN, MRC-5 SV2, read-out: IC50 T. cruzi
[2] = test system: Trypanosoma brucei rhodesiense (blood stream trypomastigotes); assay: Drug susceptibility resazurin assay, T. b. rhodesiense; conditions: 72 h, read-out: IC50 T. b. rhodesiense
[3] = test system: Trypanosoma brucei brucei (blood stream trypomastigotes); assay: Drug susceptibility resazurin assay, T. b. brucei; conditions: 72 h, read-out: IC50 T. b. brucei
[4] = test system: human lung fibroblasts (MRC-5); assay: In vitro cytotoxicity assay, MRC-5SV2 cells (resazurin); format: cell-based; conditions: for IC50: Homo sapiens, MRC5, 72 h, cytotoxicity, lung fibroblast, 3 days
Experimental: (§1) Briefly, 1.5 × 10^5 cells/mL cells were cultured with compound dilutions at 37 °C and with 5% CO2. Cell growth was compared to untreated-control wells (100% cell growth) and medium-control wells (0% cell growth). After 3 days incubation, cell viability was assessed fluorometrically after addition of 50 μL resazurin per well. […] The results were expressed as % reduction in cell growth/viability compared to control wells and an IC50 value was determined.

[5] = test system: Leishmania infantum (intracellular amastigotes); assay: In vitro anti-Leishmania assay in primary peritoneal mouse macrophages (Giemsa, microscopy); conditions: Macrophage, 120 h, read-out: IC50 L. infantum
[6] = test system: T. cruzi, T. b. brucei, T. b. rhodesiense and L. infantum; assay: Antikinetoplastid activity, whole panel, verdict in words; conditions: compounds lacking the chalcone moiety
[7] = test system: primary mouse macrophages (PMMs); assay: In vitro cytotoxicity against primary mouse macrophages; format: cell-based; conditions: for IC50: Macrophage, cytotoxicity, primary mouse macrophages
[8] = In vitro cytotoxicity assay, MRC-5SV2 cells (resazurin); format: cell-based, human; conditions: human, MRC-5SV2 cells (human lung fibroblasts); cytotoxicity; read-out: CC50 against MRC-5
Experimental: as §1

[9] = test system: promastigotes of L. aethiopica; conditions: cited from earlier work
[10] = test system: amastigotes of L. aethiopica; set-up: method as in Bekhit et al. [2015]; conditions: ref Bekhit et al. [2015]; cited from earlier work
T. b. rhodesiense [11] = test system: T. b. rhodesiense; set-up: method as in Bhambra et al. [2017]; conditions: ref Bhambra et al. [2017]; read-out: IC50 against T. b. rhodesiense; cited from earlier work
L. amazonensis = test system: L. amazonensis; set-up: method as in Bernardino et al. [2006]; conditions: ref Bernardino et al. [2006]; read-out: IC50 against L. amazonensis; cited from earlier work
T. b. rhodesiense [12] = test system: T. b. rhodesiense; set-up: method as in Agarwal et al. [2024]; conditions: imidazo[1,2-a]pyridine-chalcones; ref Agarwal et al. [2024]; read-out: IC50 against T. b. rhodesiense; cited from earlier work
L. panamensis = test system: L. panamensis; set-up: method as in García et al. [2018]; conditions: ref García et al. [2018]; read-out: EC50 against L. panamensis; cited from earlier work
T. cruzi = test system: T. cruzi; set-up: method as in García et al. [2018]; conditions: ref García et al. [2018]; read-out: EC50 against T. cruzi; cited from earlier work

Row | Structure (SMILES) | IC50 [1] | IC50 [2] | IC50 [3] | IC50 [4] | IC50 [5] | IC50 [7] | other results
1 | O=C(Cn1ccnc1[N+](=O)[O-])NCc1ccccc1 [Benznidazole, reference compound] | 1.35 µM |  |  |  |  |  | 
2 | O=C(O)c1cn(-c2ccccc2)nc1-c1ccccc1 [Compound 5, 1,3-diphenyl-1H-pyrazole-4-carboxylic acid] | > 64 µM | > 64 µM | > 64 µM | 33 µM | > 64 µM | > 64 µM | antikinetoplastid activity, in words [6]: inactive
3 | CC(=O)c1ccc(NC(=O)c2cn(-c3ccccc3)nc2-c2ccccc2)cc1 [Compound 7, N-(4-acetylphenyl)-1,3-diphenyl-1H-pyrazole-4-carboxamide] | > 64 µM | > 64 µM | > 64 µM | 14.4 µM | > 64 µM | > 64 µM | melting point: 149 to 150 °C; antikinetoplastid activity, in words [6]: inactive
4 | O=C(C=Cc1ccccc1)c1ccc(NC(=O)c2cn(-c3ccccc3)nc2-c2ccccc2)cc1 [Compound 9a, N-(4-cinnamoylphenyl)-1,3-diphenyl-1H-pyrazole-4-carboxamide] | > 53.2 µM | 0.96 ± 0.49 µM | 0.77 ± 0.27 µM | > 64 µM | 7.16 ± 1.88 µM | 32 µM | melting point: 160 to 161 °C; cytotoxicity against human lung fibroblasts (MRC-5), in words [4]: non-cytotoxic; cytotoxicity against primary mouse macrophages (PMMs), in words [7]: non-cytotoxic
5 | Cc1ccccc1/C=C/C(=O)c1ccc(NC(=O)c2cn(-c3ccccc3)nc2-c2ccccc2)cc1 [Compound 9b, (E)-1,3-diphenyl-N-(4-(3-(o-tolyl)acryloyl)phenyl)-1H-pyrazole-4-carboxamide] | > 64 µM | 0.54 ± 0.24 µM | 0.51 ± 0.06 µM | > 64 µM | 18.7 ± 9.18 µM | > 36 µM | cytotoxicity against human lung fibroblasts (MRC-5), in words [4]: non-cytotoxic; cytotoxicity against primary mouse macrophages (PMMs), in words [7]: non-cytotoxic
6 | COc1cccc(/C=C/C(=O)c2ccc(NC(=O)c3cn(-c4ccccc4)nc3-c3ccccc3)cc2)c1 [Compound 9c, (E)-N-(4-(3-(3-methoxyphenyl)acryloyl)phenyl)-1,3-diphenyl-1H-pyrazole-4-carboxamide] |  |  |  | 10.7 µM |  |  | CC50 at 3 days [8]: 10.7 µM
7 | COc1ccc(/C=C/C(=O)c2ccc(NC(=O)c3cn(-c4ccccc4)nc3-c3ccccc3)cc2)cc1 [Compound 9d, (E)-N-(4-(3-(4-methoxyphenyl)acryloyl)phenyl)-1,3-diphenyl-1H-pyrazole-4-carboxamide] | > 64 µM | 0.69 ± 0.31 µM | 1.64 ± 0.12 µM | > 64 µM | 31.8 ± 19.1 µM | > 64 µM | melting point: 174 to 175 °C
8 | O=C(/C=C/c1ccc(Br)cc1)c1ccc(NC(=O)c2cn(-c3ccccc3)nc2-c2ccccc2)cc1 [Compound 9e, (E)-N-(4-(3-(4-bromophenyl)acryloyl)phenyl)-1,3-diphenyl-1H-pyrazole-4-carboxamide] | > 64 µM | 1.37 ± 0.02 µM | 1.13 ± 0.63 µM | 34.9 µM | > 46.8 µM | > 64 µM | 
9 | O=C(/C=C/c1ccccc1Cl)c1ccc(NC(=O)c2cn(-c3ccccc3)nc2-c2ccccc2)cc1 [Compound 9f, (E)-N-(4-(3-(2-chlorophenyl)acryloyl)phenyl)-1,3-diphenyl-1H-pyrazole-4-carboxamide] | 13.4 ± 4.95 µM | 0.81 ± 0.09 µM | 0.6 ± 0.33 µM | > 64 µM | 18.7 ± 9.18 µM | > 64 µM | 
10 | O=C(/C=C/c1cccc(Cl)c1)c1ccc(NC(=O)c2cn(-c3ccccc3)nc2-c2ccccc2)cc1 [Compound 9g, (E)-N-(4-(3-(3-chlorophenyl)acryloyl)phenyl)-1,3-diphenyl-1H-pyrazole-4-carboxamide] |  |  |  | 6.2 µM |  |  | CC50 at 3 days [8]: 6.2 µM
11 | O=C(/C=C/c1cccc(F)c1)c1ccc(NC(=O)c2cn(-c3ccccc3)nc2-c2ccccc2)cc1 [Compound 9h, (E)-N-(4-(3-(3-fluorophenyl)acryloyl)phenyl)-1,3-diphenyl-1H-pyrazole-4-carboxamide] | > 64 µM | 1.56 ± 0.11 µM | 6.36 ± 0.11 µM | 24.8 µM | 21 ± 11 µM | > 48 µM | 
12 | O=C(/C=C/c1ccc(F)cc1)c1ccc(NC(=O)c2cn(-c3ccccc3)nc2-c2ccccc2)cc1 [Compound 9i, (E)-N-(4-(3-(4-fluorophenyl)acryloyl)phenyl)-1,3-diphenyl-1H-pyrazole-4-carboxamide] | > 54.2 µM | 1.12 ± 0.74 µM | 0.78 ± 0.26 µM | > 64 µM | > 37.4 µM | > 64 µM | 
13 | O=C(/C=C/c1ccc(Cl)c(Cl)c1)c1ccc(NC(=O)c2cn(-c3ccccc3)nc2-c2ccccc2)cc1 [Compound 9j, (E)-N-(4-(3-(3,4-dichlorophenyl)acryloyl)phenyl)-1,3-diphenyl-1H-pyrazole-4-carboxamide] | 46.1 µM | 4.52 µM | 4.63 µM | 22.3 µM | > 64 µM | > 64 µM | melting point: 200 to 201 °C
14 | O=C(/C=C/c1cccc([N+](=O)[O-])c1)c1ccc(NC(=O)c2cn(-c3ccccc3)nc2-c2ccccc2)cc1 [Compound 9k, (E)-N-(4-(3-(3-nitrophenyl)acryloyl)phenyl)-1,3-diphenyl-1H-pyrazole-4-carboxamide] | > 64 µM | 8.22 µM | 6.69 µM | 19.4 µM | 45.2 µM | > 64 µM | 
15 | O=C(/C=C/c1cccs1)c1ccc(NC(=O)c2cn(-c3ccccc3)nc2-c2ccccc2)cc1 [Compound 9l, (E)-1,3-diphenyl-N-(4-(3-(thiophen-2-yl)acryloyl)phenyl)-1H-pyrazole-4-carboxamide] | > 64 µM | 2.7 ± 0.03 µM | 13.2 ± 19 µM | 39.2 µM | > 53.5 µM | > 64 µM | melting point: 210 to 211 °C
16 | O=C(/C=C/c1cccnc1)c1ccc(NC(=O)c2cn(-c3ccccc3)nc2-c2ccccc2)cc1 [Compound 9m, (E)-1,3-diphenyl-N-(4-(3-(pyridin-3-yl)acryloyl)phenyl)-1H-pyrazole-4-carboxamide] |  |  |  | 0.26 µM |  |  | melting point: 198 to 199 °C; CC50 at 3 days [8]: 0.26 µM
17 | O=C(/C=C/c1ccc2c(c1)OCO2)c1ccc(NC(=O)c2cn(-c3ccccc3)nc2-c2ccccc2)cc1 [Compound 9n, (E)-N-(4-(3-(benzo[d][1,3]dioxol-5-yl)acryloyl)phenyl)-1,3-diphenyl-1H-pyrazole-4-carboxamide] | > 64 µM | 0.46 ± 0.07 µM | 3.44 ± 2.88 µM | 64 µM | > 57.4 µM | > 64 µM | melting point: 182 to 183 °C; cytotoxicity against human lung fibroblasts (MRC-5), in words [4]: non-cytotoxic; cytotoxicity against primary mouse macrophages (PMMs), in words [7]: non-cytotoxic
18 | CC(=O)C(C1=NN(C(C)=O)C(c2cn(-c3ccc(Br)cc3)nc2-c2ccc([N+](=O)[O-])cc2)S1)c1ccccc1 (stereo not drawn) [III] |  |  |  |  |  |  | IC50 against promastigotes of L. aethiopica ([9]; ref Bekhit et al. [2015]): 0.0142 µg/mL; IC50 against amastigotes of L. aethiopica [10]: 0.13 µg/mL
19 | Cc1ccc(-n2cc(/C=C/C(=O)c3cccs3)c(-c3ccccc3)n2)cc1 [II] |  |  |  |  |  |  | EC50 against promastigotes of L. aethiopica ([9]; ref Bekhit et al. [2014]): 0.079 µg/mL
20 | O=C(/C=C/c1cccnc1)c1ccccc1Br [IV] |  |  |  |  |  |  | IC50 (T. b. rhodesiense [11]): 0.38 µM
21 | O=[N+]([O-])c1ccc(N/N=C/c2cnn(-c3ccc(Br)cc3)c2)cc1 [I] |  |  |  |  |  |  | IC50 (L. amazonensis): 50 µM
22 | CCCCCCCCCCCCCCCCOP(=O)([O-])OCC[N+](C)(C)C [Miltefosine, reference compound] |  |  |  |  | 7.13 µM |  | 
23 | Cc1ccc(C(=O)Nc2ccc(S(=O)(=O)O)c3cc(S(=O)(=O)O)cc(S(=O)(=O)O)c23)cc1NC(=O)c1cccc(NC(=O)Nc2cccc(C(=O)Nc3cc(C(=O)Nc4ccc(S(=O)(=O)O)c5cc(S(=O)(=O)O)cc(S(=O)(=O)O)c45)ccc3C)c2)c1 [Suramine, reference compound] |  | 0.05 µM | 0.04 µM |  |  |  | 
24 | O=C(/C=C/c1ccc(Br)cc1)c1ccc(NC(=O)c2cn3ccccc3n2)cc1 [VI] |  |  |  |  |  |  | IC50 (T. b. rhodesiense [12]): 1.13 µM
25 | CC(CCCCCCC[n+]1ccn(C)c1)Oc1ccc(C(=O)/C=C/c2ccco2)cc1 (stereo not drawn) [V] |  |  |  |  |  |  | EC50 (L. panamensis): 0.78 µM; EC50 (T. cruzi): 0.66 µM
